Where “and” joins values, the source holds several entries; their conditions need not be identical. Equal entries are not always repeated.
Tested on: lipase
Test: Lipase/lipolysis assay (EnzChek Lipase Substrate, quenched BODIPY-fatty acid conjugate) on stored human milk; also: test concentration or dose not given here

| SMILES | Lipase (RFU) |
| --- | --- |
| CC(=O)[C@@]1(O)CC[C@H]2[C@@H]3CC=C4C[C@@H](O)CC[C@]4(C)[C@H]3CC[C@@]21C [Compound 17a-Hydroxypregnenolone] | 861.6395 RFU |
| C[C@]12CCC(=O)C=C1CC[C@@H]1[C@@H]2C(=O)C[C@@]2(C)[C@H]1CC[C@]2(O)C(=O)CO [Cortisone] | 1233.864 RFU |
| c1ccc2c(c1)CCO2 [Coumaran] | 980.2989 RFU |
| COc1cc(C)ccc1O [Creosol] | 835.9293 RFU and 462.1743 RFU |
| O=C(/C=C/c1ccc(O)c(O)c1)O[C@H]1[C@H](O)C[C@](O)(C(=O)O)C[C@H]1O [Cryptochlorogenic acid] | 1264.679 RFU |
| CC(=O)OC(C)(C)/C=C/C(=O)[C@](C)(O)[C@H]1[C@H](O)C[C@@]2(C)[C@@H]3CC=C4[C@H](C[C@H](O)C(=O)C4(C)C)[C@]3(C)C(=O)C[C@]12C [Cucurbitacin B] | 789.0588 RFU |
| CC(C)(O)/C=C/C(=O)[C@](C)(O)[C@H]1[C@H](O)C[C@@]2(C)[C@@H]3CC=C4[C@@H](C[C@H](O)C(=O)C4(C)C)[C@]3(C)C(=O)C[C@]12C [Cucurbitacin D] | 937.0398 RFU |
| CC(=O)OC(C)(C)/C=C/C(=O)[C@](C)(O)[C@H]1[C@H](O)C[C@@]2(C)[C@@H]3CC=C4[C@@H](C=C(O)C(=O)C4(C)C)[C@]3(C)C(=O)C[C@]12C [Cucurbitacin E] | 641.6726 RFU |
| Nc1nc2c(ncn2[C@@H]2O[C@@H]3COP(=O)([O-])O[C@H]3[C@H]2O)c(=O)[nH]1.[Na+] [Cyclic GMP (sodium)] | 1109.907 RFU |
| CC(=O)N[C@@H]1C(O)O[C@H](CO)[C@@H](O)[C@@H]1O (stereo partly drawn) [Cyclic N-Acetyl-D-mannosamine] | 868.6631 RFU |
| O=C(O)C(F)(F)F.O=C1N[C@@H](Cc2cnc[nH]2)C(=O)N2CCC[C@@H]12 [Cyclo(his-pro) (TFA)] | 956.1787 RFU |
| C=C(CO)C(=O)O[C@H]1CC(=C)[C@@H]2C[C@H](O)C(=C)[C@@H]2[C@H]2OC(=O)C(=C)[C@@H]21 [Cynaropicrin] | 1182.791 RFU |
| O=c1cc(-c2ccc(O)c(O)c2)oc2cc(O[C@@H]3O[C@H](CO)[C@@H](O)[C@H](O)[C@H]3O)cc(O)c12 [Cynaroside] | 1111.46 RFU |
| N[C@@H](CS)C(=O)NCC(=O)O.O=C(O)C(F)(F)F [Cysteinylglycine (TFA)] | 954.0897 RFU |
| Nc1ccn([C@@H]2O[C@H](COP(=O)([O-])OP(=O)([O-])OP(=O)(O)O)[C@@H](O)[C@H]2O)c(=O)n1.[Na+].[Na+] [Cytidine-5′-triphosphate (disodium)] | 1141.901 RFU |
| O=C(O)C(O)COP(=O)(O)O [D-3-Phospho-Glyceric Acid] | 875.2279 RFU |
| OC[C@H]1O[C@@H](O[C@H]2[C@H](O)[C@@H](O)[C@H](O)O[C@@H]2CO)[C@H](O)[C@@H](O)[C@@H]1O [D-(+)-Cellobiose] | 821.3157 RFU |
| OC[C@H]1O[C@@](CO)(O[C@H]2O[C@H](CO)[C@@H](O)[C@H](O)[C@H]2O)[C@@H](O[C@H]2O[C@H](CO)[C@@H](O)[C@H](O)[C@H]2O)[C@@H]1O [D-(+)-Melezitose] | 886.4563 RFU |
| O.O.OC[C@H]1O[C@H](O[C@H]2O[C@H](CO)[C@@H](O)[C@H](O)[C@H]2O)[C@H](O)[C@@H](O)[C@@H]1O [D-(+)-Trehalose dihydrate] | 1045.976 RFU |
| OC[C@H]1O[C@H](O[C@H]2O[C@H](CO)[C@@H](O)[C@H](O)[C@H]2O)[C@H](O)[C@@H](O)[C@@H]1O [D-(+)-Trehalose] | 893.2005 RFU and 909.0228 RFU |
| OC[C@H]1OC(O)[C@H](O)[C@@H](O)[C@@H]1O (stereo partly drawn) [D--Glucose] | 992.2563 RFU |
| OC[C@@H](O)C(O)[C@H](O)CO [D-Arabitol] | 977.3738 RFU and 986.8626 RFU |

| SMILES | Lipase (RFU) |
| --- | --- |
| N=C(N)NCCC[C@@H](N)C(=O)O [D-Arginine] | 1215.288 RFU |
| OC[C@H]1O[C@@H](O[C@H]2[C@H](O)[C@@H](O)[C@H](O)O[C@@H]2CO)[C@H](O)[C@@H](O)[C@@H]1O [D-Cellobiose] | 785.8282 RFU |
| C[C@@H]1NC(=O)N[C@@H]1CCCCCC(=O)O [D-Desthiobiotin] | 791.1157 RFU |
| CCCCCCCCCCCCCCC[C@@H](O)[C@@H](N)CO [D-Erythro-dihydrosphingosine] | 1051.007 RFU |
| O=C(O)[C@H](O)[C@@H](O)[C@H](O)[C@H](O)CO [D-Gluconic Acid] | 876.4287 RFU |
| N[C@@H](C(=O)O)[C@@H](O)[C@H](O)[C@H](O)CO [D-Glucosaminic Acid] | 794.5821 RFU |
| O=C[C@H](O)[C@@H](O)[C@H](O)[C@H](O)COP(=O)([O-])[O-].[Na+].[Na+] [D-Glucose 6-phosphate (disodium salt)] | 1238.699 RFU |
| O=P(O)(O)O[C@H]1O[C@H](CO)[C@@H](O)[C@H](O)[C@H]1O [D-Glucose-1-Phosphate] | 853.7765 RFU and 929.0604 RFU |
| O=C[C@H](O)[C@H]1OC(=O)[C@@H](O)[C@H]1O [D-Glucuronic acid lactone] | 1111.254 RFU |
| N[C@H](CCC(=O)O)C(=O)O [D-Glutamic Acid] | 1176.72 RFU |
| O=C(O)C[C@@H](O)C(=O)O [D-Malic Acid] | 752.7528 RFU |
| O=P(O)(O)O[C@H]1O[C@H](CO)[C@@H](O)[C@H](O)[C@@H]1O [D-Mannose-1-Phosphate] | 1121.007 RFU |
| OC[C@H]1O[C@@](CO)(O[C@H]2O[C@H](CO)[C@@H](O)[C@H](O)[C@H]2O)[C@@H](O[C@H]2O[C@H](CO)[C@@H](O)[C@H](O)[C@H]2O)[C@@H]1O [D-Melezitose] | 1021.506 RFU |
| OC[C@H]1O[C@H](OCC2O[C@@H](O)[C@H](O)[C@@H](O)[C@@H]2O)[C@H](O)[C@@H](O)[C@H]1O (stereo partly drawn) [D-Melibiose] | 850.0787 RFU and 747.8737 RFU |
| OC[C@H]1O[C@H](OC[C@H]2O[C@H](O[C@H]3[C@H](O)[C@@H](O)C(O)O[C@@H]3CO)[C@H](O)[C@@H](O)[C@@H]2O)[C@H](O)[C@@H](O)[C@@H]1O (stereo partly drawn) [D-Panose] | 982.4149 RFU |
| O=C(CO)[C@H](O)[C@H](O)[C@H](O)CO [D-Psicose] | 990.8733 RFU |
| OC[C@H]1O[C@H](OC[C@H]2O[C@H](O[C@]3(CO)O[C@H](CO)[C@@H](O)[C@@H]3O)[C@H](O)[C@@H](O)[C@@H]2O)[C@H](O)[C@@H](O)[C@H]1O [D-Raffinose] | 981.0683 RFU |
| O=C1O[C@H](CO)[C@@H](O)[C@H]1O [D-Ribonolactone] | 702.8507 RFU |
| O=C(CO)[C@@H](O)[C@@H](O)[C@H](O)CO [D-Tagatose] | 939.2844 RFU |
| O=C(O)[C@@H](O)[C@H](O)C(=O)O [D-Tartaric Acid] | 685.8128 RFU |
| OC1C(O)C(O)C(O)C(O)C1O [D-chiro-Inositol] | 896.4132 RFU |
| CCCCCCCCCCCCC/C=C/[C@@H](O)[C@@H](N)CO [D-erythro-Sphingosine] | 823.3956 RFU |

| SMILES | Lipase (RFU) |
| --- | --- |
| CC(=O)Oc1c(C)c(C)c2c(c1C)CCC(C)(CCC[C@H](C)CCC[C@H](C)CCCC(C)C)O2 (stereo partly drawn) [D-α-Tocopherol acetate] | 1194.717 RFU |
| CC1=C(C)C(=O)C(CC[C@](C)(O)CCC[C@H](C)CCC[C@H](C)CCCC(C)C)=C(C)C1=O [D-α-Tocopherylquinone] | 598.2224 RFU |
| COc1ccc2c(c1)OC(O)C(=O)N2O (stereo not drawn) [DIMBOA] | 910.6705 RFU |
| CCCCCCCCCCCCCCCC(=O)OC[C@H](COP(=O)([O-])OCC[N+](C)(C)C)OC(=O)CCCCCCCCCCCCCCC [DPPC] | 959.6761 RFU |
| O=c1c(-c2ccc(O)cc2)coc2cc(O[C@@H]3O[C@H](CO)[C@@H](O)[C@H](O)[C@H]3O)ccc12 [Daidzin] | 828.0829 RFU |
| C/C=C/C(=O)C1=C(C)C=CCC1(C)C [Damascenone] | 912.4849 RFU |
| O=C([O-])C(O)Cc1ccc(O)c(O)c1.[Na+] (stereo not drawn) [Danshensu (sodium salt)] | 948.7665 RFU |
| CCCCCCCCCC=O [Decyl aldehyde] | 807.9785 RFU and 682.2968 RFU |
| COc1cc2c(cc1OC)[C@@H]1C(=O)c3ccc4c(c3O[C@@H]1CO2)C=CC(C)(C)O4 [Deguelin] | 955.3932 RFU |
| OC[C@H]1O[C@@H](Oc2cc3c(O)cc(O)cc3[o+]c2-c2cc(O)c(O)c(O)c2)[C@H](O)[C@@H](O)[C@@H]1O.[Cl-] [Delphinidin 3-glucoside (chloride)] | 843.0852 RFU |
| Oc1cc(O)c2cc(O)c(-c3cc(O)c(O)c(O)c3)[o+]c2c1.[Cl-] [Delphinidin (chloride)] | 816.1782 RFU |
| Cc1cc(O)cc2c1O[C@](C)(CCC[C@H](C)CCC[C@H](C)CCCC(C)C)CC2 [Delta-Tocopherol] | 1328.881 RFU |
| CC(=O)c1ccc2c(c1)C=CC(C)(C)O2 [Demethoxyencecalin] | 1050.951 RFU |
| CC(C)=CCc1cc2ccc(=O)oc2cc1O [Demethylsuberosin] | 917.5135 RFU |
| N[C@@H](CNC(=O)C(=O)O)C(=O)O [Dencichine] | 1365.261 RFU |
| C[C@]12CC[C@H]3[C@@H](CCC4=CC(=O)CC[C@@]43C)[C@@H]1CC[C@@H]2C(=O)CO [Deoxycorticosterone] | 992.8813 RFU |
| C=CCSSCC=C [Diallyl disulfide] | 1000.398 RFU and 1055.55 RFU |
| c1ccc(CSSCc2ccccc2)cc1 [Dibenzyl disulfide] | 1113.399 RFU |
| COc1ccc([C@@H]2CC(=O)c3c(O)cc(O[C@@H]4O[C@H](CO[C@@H]5O[C@@H](C)[C@H](O)[C@@H](O)[C@H]5O)[C@@H](O)[C@H](O)[C@H]4O)cc3O2)cc1 [Didymin] | 1064.164 RFU |
| CCOP(=O)(O)OCC [Diethyl phosphate] | 1033.984 RFU |
| C[C@H]1O[C@@H](O[C@H]2[C@@H](O)C[C@H](O[C@H]3[C@@H](O)C[C@H](O[C@H]4CC[C@@]5(C)[C@H](CC[C@@H]6[C@@H]5CC[C@]5(C)[C@@H](C7=CC(=O)OC7)CC[C@]65O)C4)O[C@@H]3C)O[C@@H]2C)C[C@H](O)[C@@H]1O [Digitoxin] | 1074.946 RFU |
| COc1cc(CCCO)ccc1O [Dihydroconiferyl alcohol] | 1331.121 RFU |
